Measurements published in patent publication US5004780A, “Cyclic monoperoxyketal” (priority 1988, dated 1991).

How the values were obtained:
Type in all cases: physicochemical
[1] = Thermal decomposition of peroxyketal in cumene at 100° C.; conditions: 0.05 mol/l; for Half-life period: 50000 µM
Description: (§1) A 0.05 mol/l cumene solution of each of the cyclic monoperoxyketals of the present invention produced in Examples 1-6 and the cyclic bisperoxyketals produced in the same manner as described in Examples 1-6 was prepared. A given amount of each sample solution was sampled into a glass ampule, and the sample solution was deaerated by a freezing method, and then the ampule was sealed under vacuum. Then, the ampules were put in a thermostat kept at 100° C., and taken out from the thermostate every predetermined times, and the concentration of peroxyketal was measured by a gas chromatography or liquid chromatography. The decomposition rate constant and half-life period of a sample peroxyketal were calculated from the disappearing rate of the peroxyketal. The obtained results are shown in the following Table 1 as Examples 6-12 and Comparative examples 1-6.

[2] = Thermal decomposition product of peroxyketal in cumene (gas chromatography)
Description: Each of the thermal decomposition reaction solutions of Example 7 and Comparative example 1 was analyzed by means of a gas chromatography to measure the thermal decomposition products. The number of mols of the decomposition products per 1 mol of each of the decomposed peroxyketals was calculated. The obtained results are shown in the following Table 3 as Example 16 and Comparative example 7.

[3] = Amounts of ketone and alcohol formed by the thermal decomposition of peroxyketal in cumene; conditions: 100° C.
Description: The amount of ketone and that of alcohol contained in each of the thermal decomposition solutions obtained in Examples 6-12 and Comparative examples 1-6 were measured by means of a gas chromatography. The numbers of mols of ketone and alcohol per 1 mol of each of decomposed cyclic monoperoxyketal or cyclic bisperoxyketal were measured. The obtained results are shown in the following Table 4 as Examples 17-22 and Comparative examples 8-13.

[4] = Solubility of peroxyketal in unsaturated polyester resin; set-up: key: .circle.: Complete dissolving; Δ: Fairly long time was required in dissolving; X: Incomplete dissolving (white turbid)
[5] = Thermal decomposition of 1-methoxy-1-(1,1-dimethylethylperoxy)cyclohexane at 100° C. in n-hexane, n-dodecane or n-hexadecane; conditions: for Half-life period: 50000 µM
Description: as §1
Thermal decomposition of 1-methoxy-1-(1,1-dimethylethylperoxy)cyclohexane at 100° C. was carried out in the same manner as described in Example 7, except that n-hexane, n-dodecane or n-hexadecane was used as a solvent in place of cumene, and the thermal decomposition rate constant and half-life period of the cyclic monoperoxyketal in these solvents were measured.

[6] = n-hexadecane, viscosity 0.900 cp

Q: Which Decomposition rate constant [1] does the source give for CC(C)(C)OOC1(OOC(C)(C)C)CCCCC1 [Comparative example 1, 1,1-bis(1,1-dimethylethylperoxy)cyclohexane, reference compound] here?
A: 5.06 ×10^5 (1/sec)

Q: And the Half-life period [1]?
A: 3.81 h

Q: What about the “Thermal decomposition product: 1,1-dimethylperoxyhexanoate” value ([2]; 100° C., 1,1-dimethylperoxyhexanoate) of the same molecule?
A: 0.35 Number of mols per 1 mol of de

Q: What about the “Thermal decomposition product: biscumyl” value ([2]; 100° C.) of the same molecule?
A: 0.69 Number of mols per 1 mol of de

Q: What about the “Thermal decomposition product: t-butanol” value ([2]; 100° C.) of the same molecule?
A: 1.06 Number of mols per 1 mol of de

Q: What about the “Ratio of ketone to alcohol” value [3] of the same molecule?
A: 0.01

Q: What about the “Thermal decomposition product: Alcohol” value [3] of the same molecule?
A: 1.37 mols per 1 mol of decomposed p

Q: And the “Thermal decomposition product: Ketone” value [3]?
A: 0.02 mols per 1 mol of decomposed p

Q: What about the Solubility [4] of the same molecule?
A: .circle.

Q: What does the source list for CCC(C)(C)OOC1(OC)CCCCC1 [Example 8, 1-methoxy-1-(1,1-dimethylpropylperoxy)cyclohexane]?
A: Decomposition rate constant [1]: 10.58 ×10^5 (1/sec); Half-life period [1]: 1.82 h; Ratio of ketone to alcohol [3]: 5.71; Thermal decomposition product: Alcohol [3]: 0.14 mols per 1 mol of decomposed p; Thermal decomposition product: Ketone [3]: 0.80 mols per 1 mol of decomposed p; Solubility [4]: .circle.

Q: With CCCC(C)(C)OOC1(OOC(C)(C)CCC)CC(C)CC(C)(C)C1 (centres unmarked) [compound 6, 1,1-bis(1,1-dimethylbutylperoxy)-3,3,5-trimethylcyclohexane, reference compound] as the molecule, how does the Decomposition rate constant [1] read?
A: 7.50 ×10^5 (1/sec)

Q: And the Half-life period [1]?
A: 2.57 h

Q: What about the “Ratio of ketone to alcohol” value [3] of the same molecule?
A: 1.25

Q: What about the “Thermal decomposition product: Alcohol” value [3] of the same molecule?
A: 0.64 mols per 1 mol of decomposed p

Q: What about the “Thermal decomposition product: Ketone” value [3] of the same molecule?
A: 0.80 mols per 1 mol of decomposed p

Q: What about the Solubility [4] of the same molecule?
A: Δ

Q: Which results are given for CC(C)(OOC1(OOC(C)(C)c2ccccc2)CCCCC1)c1ccccc1 [compound 5, 1,1-bis(1-methyl-1-phenylethylperoxy)cyclohexane, reference compound]?
A: Decomposition rate constant [1]: 8.24 ×10^5 (1/sec); Half-life period [1]: 2.34 h; Ratio of ketone to alcohol [3]: 0.41; Thermal decomposition product: Alcohol [3]: 1.00 mols per 1 mol of decomposed p; Thermal decomposition product: Ketone (Acetophenone is formed) [3]: 0.41 mols per 1 mol of decomposed p; Solubility [4]: .circle.

Q: For COC1(OOC(C)(C)CC(C)(C)C)CCCCC1 [Example 10, 1-methoxy-1-(1,1,3,3-tetramethylbutylperoxy)cyclohexane], which Decomposition rate constant [1] is on record?
A: 28.40 ×10^5 (1/sec)

Q: What about the Half-life period [1] of the same molecule?
A: 0.68 h

Q: And the “Ratio of ketone to alcohol” value [3]?
A: 79.0

Q: What about the “Thermal decomposition product: Alcohol” value [3] of the same molecule?
A: 0.01 mols per 1 mol of decomposed p

Q: And the “Thermal decomposition product: Ketone” value [3]?
A: 0.79 mols per 1 mol of decomposed p

Q: And the Solubility [4]?
A: .circle.

Q: What does the source list for CCCC(C)(C)OOC1(OC)CCCCC1 [Example 9, 1-methoxy-1-(1,1-dimethylbutylperoxy)cyclohexane]?
A: Decomposition rate constant [1]: 11.20 ×10^5 (1/sec); Half-life period [1]: 1.72 h; Ratio of ketone to alcohol [3]: 2.26; Thermal decomposition product: Alcohol [3]: 0.31 mols per 1 mol of decomposed p; Thermal decomposition product: Ketone [3]: 0.70 mols per 1 mol of decomposed p; Solubility [4]: .circle.

Q: For CC(C)(C)CC(C)(C)OOC1(OOC(C)(C)CC(C)(C)C)CCCCC1 [compound 4, 1,1-bis(1,1,3,3-tetramethylbutylperoxy)cyclohexane, reference compound], which Decomposition rate constant [1] is on record?
A: 19.83 ×10^5 (1/sec)

Q: And the Half-life period [1]?
A: 0.97 h

Q: And the “Ratio of ketone to alcohol” value [3]?
A: 1.21

Q: And the “Thermal decomposition product: Alcohol” value [3]?
A: 0.24 mols per 1 mol of decomposed p

Q: And the “Thermal decomposition product: Ketone” value [3]?
A: 0.29 mols per 1 mol of decomposed p

Q: And the Solubility [4]?
A: X

Q: What does the source list for CCCC(C)(C)OOC1(OOC(C)(C)CCC)CCCCC1 [compound 3, 1,1-bis(1,1-dimethylbutylperoxy)cyclohexane, reference compound]?
A: Decomposition rate constant [1]: 7.48 ×10^5 (1/sec); Half-life period [1]: 2.57 h; Ratio of ketone to alcohol [3]: 1.28; Thermal decomposition product: Alcohol [3]: 0.65 mols per 1 mol of decomposed p; Thermal decomposition product: Ketone [3]: 0.83 mols per 1 mol of decomposed p; Solubility [4]: Δ

Q: With COC1(OOC(C)(C)C)CCCCC1 [Example 7, 1-methoxy-1-(1,1-dimethylethylperoxy)cyclohexane] as the molecule, how does the Decomposition rate constant [1] read?
A: 6.79 ×10^5 (1/sec)

Q: What about the Half-life period [1] of the same molecule?
A: 2.84 h

Q: And the Decomposition rate constant ([5]; n-dodecane, viscosity 0.520 cp)?
A: 4.71 ×10^5 (1/sec)

Q: And the Half-life period ([5]; n-dodecane, viscosity 0.520 cp)?
A: 4.09 h

Q: And the Decomposition rate constant [5, 6]?
A: 4.23 ×10^5 (1/sec)

Q: What about the Half-life period [5, 6] of the same molecule?
A: 4.55 h

Q: What about the Decomposition rate constant ([5]; n-hexane, viscosity 0.168 cp) of the same molecule?
A: 5.13 ×10^5 (1/sec)

Q: And the Half-life period ([5]; n-hexane, viscosity 0.168 cp)?
A: 3.75 h

Q: And the “Thermal decomposition product: acetone” value ([2]; 100° C., acetone)?
A: 0.10 Number of mols per 1 mol of de

Q: And the “Thermal decomposition product: biscumyl” value ([2]; 100° C.)?
A: 0.50 Number of mols per 1 mol of de

Q: And the “Thermal decomposition product: methyl hexanoate” value ([2]; 100° C., methyl hexanoate)?
A: 0.59 Number of mols per 1 mol of de

Q: And the “Thermal decomposition product: t-butanol” value ([2]; 100° C.)?
A: 0.47 Number of mols per 1 mol of de

Q: What about the “Ratio of ketone to alcohol” value [3] of the same molecule?
A: 0.21

Q: What about the “Thermal decomposition product: Alcohol” value [3] of the same molecule?
A: 0.47 mols per 1 mol of decomposed p

Q: What about the “Thermal decomposition product: Ketone” value [3] of the same molecule?
A: 0.10 mols per 1 mol of decomposed p

Q: What about the Solubility [4] of the same molecule?
A: .circle.

Q: Which Solubility [4] does the source give for CC(C)(C)OOC(=O)c1ccccc1 [compound 28, 1,1-dimethylethyl peroxybenzoate] here?
A: .circle.

Q: For CCCC(C)(C)OOC1(OC)CC(C)CC(C)(C)C1 (centres unmarked) [Example 12, 1-methoxy-1-(1,1-dimethylbutylperoxy)-3,3,5-trimethylcyclohexane], which Decomposition rate constant [1] is on record?
A: 11.25 ×10^5 (1/sec)

Q: And the Half-life period [1]?
A: 1.71 h

Q: And the “Ratio of ketone to alcohol” value [3]?
A: 2.27

Q: What about the “Thermal decomposition product: Alcohol” value [3] of the same molecule?
A: 0.30 mols per 1 mol of decomposed p

Q: What about the “Thermal decomposition product: Ketone” value [3] of the same molecule?
A: 0.68 mols per 1 mol of decomposed p

Q: What about the Solubility [4] of the same molecule?
A: .circle.

Q: Which Decomposition rate constant [1] does the source give for CCC(C)(C)OOC1(OOC(C)(C)CC)CCCCC1 [compound 2, 1,1-bis(1,1-dimethylpropylperoxy)cyclohexane, reference compound] here?
A: 7.32 ×10^5 (1/sec)

Q: And the Half-life period [1]?
A: 2.63 h

Q: What about the “Ratio of ketone to alcohol” value [3] of the same molecule?
A: 2.81

Q: And the “Thermal decomposition product: Alcohol” value [3]?
A: 0.26 mols per 1 mol of decomposed p

Q: And the “Thermal decomposition product: Ketone” value [3]?
A: 0.73 mols per 1 mol of decomposed p

Q: And the Solubility [4]?
A: Δ

Q: With COC1(OOC(C)(C)c2ccccc2)CCCCC1 [Example 11, 1-methoxy-1-(1-methyl-1-phenylethylperoxy)cyclohexane] as the molecule, how does the Decomposition rate constant [1] read?
A: 11.32 ×10^5 (1/sec)

Q: And the Half-life period [1]?
A: 1.70 h

Q: And the “Ratio of ketone to alcohol” value [3]?
A: 0.42

Q: And the “Thermal decomposition product: Alcohol” value [3]?
A: 0.60 mols per 1 mol of decomposed p

Q: And the “Thermal decomposition product: Ketone (Acetophenone is formed)” value [3]?
A: 0.25 mols per 1 mol of decomposed p

Q: What about the Solubility [4] of the same molecule?
A: .circle.
